Reference: ChEMBL document CHEMBL4477221, “Discovery and Structure-Based Optimization of 2-Ureidothiophene-3-carboxylic Acids as Dual Bacterial RNA Polymerase and Viral Reverse Transcriptase Inhibitors” (J Med Chem, 2016)
In brackets after ≈: the same amount, converted by molar mass. Activity calls are given as the source filed them. No cut-off for these calls is given here.

System: not listed separately
Assay: Inhibition of Escherichia coli RNA polymerase
Settings: not given

| Compound | IC50 |
| --- | --- |
| O=C(O)c1cc(-c2ccc(Cl)c(Cl)c2)sc1NC(=O)N(Cc1ccccc1)Cc1ccccc1 | 7 µM |
| CCN(Cc1ccccc1)C(=O)Nc1scc(-c2ccc(Cl)cc2)c1C(=O)O | > 100 µM |
| CCN(Cc1ccccc1)C(=O)Nc1cc(-c2ccc(Cl)c(Cl)c2)sc1C(=O)O | 22 µM |
| O=C(Cn1cncn1)Nc1ccc(NC(=O)Nc2sc(-c3ccc(Cl)c(Cl)c3)cc2C(=O)O)cc1 | 40 µM |
| Nc1ccc(NC(=O)Nc2sc(-c3ccc(Cl)c(Cl)c3)cc2C(=O)O)cc1 | 53 µM |
| CN(C)S(=O)(=O)Nc1ccc(NC(=O)Nc2sc(-c3ccc(Cl)c(Cl)c3)cc2C(=O)O)cc1 | 23 µM |
| Cc1ccnc2c1NC(=O)c1cccnc1N2C1CC1 [NEVIRAPINE] | > 200 µM |
| O=C(NCc1ccccc1)Nc1sc(-c2ccc(Cl)c(Cl)c2)cc1C(=O)O | 43 µM |
| CC(=O)Nc1ccc(NC(=O)Nc2sc(-c3ccc(Cl)c(Cl)c3)cc2C(=O)O)cc1 | 27 µM |

Biological target: Human immunodeficiency virus type 1 reverse transcriptase (Human immunodeficiency virus 1) (UniProt Q72547)
Assay: Inhibition of HIV1 reverse transcriptase using T19-Cy5 labeled 23-mer DNA/T2-TAMRA labeled 63-mer DNA as primer/template assessed as inhibition of dNTP incorporation into primer/template at 25 uM relative to control
Settings: not given

| Compound | inhibition |
| --- | --- |
| O=C(O)c1cc(-c2ccc(Cl)c(Cl)c2)sc1NC(=O)N(Cc1ccccc1)Cc1ccccc1 | 63% |
| CCN(Cc1ccccc1)C(=O)Nc1cc(-c2ccc(Cl)c(Cl)c2)sc1C(=O)O | 24% |
| Nc1ccc(NC(=O)Nc2sc(-c3ccc(Cl)c(Cl)c3)cc2C(=O)O)cc1 | 64% |
| O=C(NCc1ccccc1)Nc1sc(-c2ccc(Cl)c(Cl)c2)cc1C(=O)O | 64% |

System: not listed separately
Assay: Ratio of IC50 for NNRTI resistant HIV1 harboring reverse transcriptase K103N/V179F/Y181C mutant infected in human TZM-bl cells to IC50 for wild type HIV1 NL4-3 infected in human TZM-bl cells
Type: functional
Settings: not given

| Compound | Ratio IC50 |
| --- | --- |
| Cc1cc(C#N)cc(C)c1Oc1nc(Nc2ccc(C#N)cc2)nc(N)c1Br [ETRAVIRINE] | 8.8 |
| Cc1cc(/C=C/C#N)cc(C)c1Nc1ccnc(Nc2ccc(C#N)cc2)n1 [RILPIVIRINE] | 2.3 |

Biological target: Human immunodeficiency virus type 1 reverse transcriptase (Human immunodeficiency virus 1) (UniProt Q72547)
Assay: Effect on binding orientation of HIV1 Alexa 488-labeled reverse transcriptase to TAMRA-labeled primer/template duplex by FRET assay
Settings: not given

| Compound | Activity |
| --- | --- |
| O=C(Cn1cncn1)Nc1ccc(NC(=O)Nc2sc(-c3ccc(Cl)c(Cl)c3)cc2C(=O)O)cc1 | inactive |
| CN(C)S(=O)(=O)Nc1ccc(NC(=O)Nc2sc(-c3ccc(Cl)c(Cl)c3)cc2C(=O)O)cc1 | inactive |
| CC(=O)Nc1ccc(NC(=O)Nc2sc(-c3ccc(Cl)c(Cl)c3)cc2C(=O)O)cc1 | inactive |

System: Human immunodeficiency virus 1
Assay: Antiviral activity against NNRTI resistant HIV1 harboring reverse transcriptase V106I/Y181C/G190A/H221Y mutant assessed as inhibition of viral infection in human TZM-bl cells after 48 hrs by luciferase reporter gene assay
Type: functional, organism-based
Settings: Human immunodeficiency virus 1, TZM-bl

| Compound | IC50 |
| --- | --- |
| O=C1Nc2ccc(Cl)cc2[C@@](C#CC2CC2)(C(F)(F)F)O1 [EFAVIRENZ] | 26 µM |
| Cc1cc(C#N)cc(C)c1Oc1nc(Nc2ccc(C#N)cc2)nc(N)c1Br [ETRAVIRINE] | 6 µM |
| Cc1ccnc2c1NC(=O)c1cccnc1N2C1CC1 [NEVIRAPINE] | > 200 µM |
| Cc1cc(/C=C/C#N)cc(C)c1Nc1ccnc(Nc2ccc(C#N)cc2)n1 [RILPIVIRINE] | 3.5 µM |

System: not listed separately
Assay: Ratio of IC50 for NNRTI resistant HIV1 harboring reverse transcriptase A98G/K101E/Y181C/G190A mutant infected in human TZM-bl cells to IC50 for wild type HIV1 NL4-3 infected in human TZM-bl cells
Type: functional
Settings: not given

| Compound | Ratio IC50 |
| --- | --- |
| Cc1cc(C#N)cc(C)c1Oc1nc(Nc2ccc(C#N)cc2)nc(N)c1Br [ETRAVIRINE] | 15 |
| Cc1cc(/C=C/C#N)cc(C)c1Nc1ccnc(Nc2ccc(C#N)cc2)n1 [RILPIVIRINE] | 22 |

System: Staphylococcus aureus
Assay: Antibacterial activity against Staphylococcus aureus
Type: functional
Settings: not given

| Compound | MIC |
| --- | --- |
| CN(C)S(=O)(=O)Nc1ccc(NC(=O)Nc2sc(-c3ccc(Cl)c(Cl)c3)cc2C(=O)O)cc1 | 13 µg/mL (≈ 24.6 µM) |

System: Human immunodeficiency virus 1
Assay: Antiviral activity against wild type HIV1 NL4-3
Type: functional, organism-based
Settings: Human immunodeficiency virus 1, NL4-3

| Compound | IC50 |
| --- | --- |
| Cc1cc(C#N)cc(C)c1Oc1nc(Nc2ccc(C#N)cc2)nc(N)c1Br [ETRAVIRINE] | 0.005 µM |
| Cc1ccnc2c1NC(=O)c1cccnc1N2C1CC1 [NEVIRAPINE] | 0.1 µM |
| Cc1cc(/C=C/C#N)cc(C)c1Nc1ccnc(Nc2ccc(C#N)cc2)n1 [RILPIVIRINE] | 0.0009 µM |

System: Human immunodeficiency virus 1
Assay: Binding affinity to bodipy-labeled HIV1 reverse transcriptase p66 W24C/K287C double mutant assessed as induction of p66 thumb and finger domain open conformation at 3 uM by fluorescence spectroscopic analysis
Settings: not given

| Compound | Activity |
| --- | --- |
| O=C(Cn1cncn1)Nc1ccc(NC(=O)Nc2sc(-c3ccc(Cl)c(Cl)c3)cc2C(=O)O)cc1 | inactive |
| CN(C)S(=O)(=O)Nc1ccc(NC(=O)Nc2sc(-c3ccc(Cl)c(Cl)c3)cc2C(=O)O)cc1 | inactive |
| CC(=O)Nc1ccc(NC(=O)Nc2sc(-c3ccc(Cl)c(Cl)c3)cc2C(=O)O)cc1 | inactive |

Biological target: Human immunodeficiency virus type 1 reverse transcriptase (Human immunodeficiency virus 1) (UniProt Q72547)
Assay: Inhibition of HIV1 reverse transcriptase using T19-Cy5 labeled 23-mer DNA/T2-TAMRA labeled 63-mer DNA as primer/template assessed as inhibition of dNTP incorporation into primer/template at 1 uM relative to control
Settings: not given

| Compound | inhibition |
| --- | --- |
| CCN(Cc1ccccc1)C(=O)Nc1scc(-c2ccc(Cl)cc2)c1C(=O)O | 12% |

System: Human immunodeficiency virus 1
Assay: Binding affinity to bodipy-labeled HIV1 reverse transcriptase p66 W24C/K287C double mutant assessed as induction of p66 thumb and finger domain open conformation by measuring increase in bodipy fluorescence at 10 uM by stopped flow kinetic analysis
Settings: not given

| Compound | Activity |
| --- | --- |
| Cc1ccnc2c1NC(=O)c1cccnc1N2C1CC1 [NEVIRAPINE] | Active |

System: not listed separately
Assay: Ratio of IC50 for NNRTI resistant HIV1 harboring reverse transcriptase L100I/K103N/H221Y mutant infected in human TZM-bl cells to IC50 for wild type HIV1 NL4-3 infected in human TZM-bl cells
Type: functional
Settings: not given

| Compound | Ratio IC50 |
| --- | --- |
| Cc1cc(C#N)cc(C)c1Oc1nc(Nc2ccc(C#N)cc2)nc(N)c1Br [ETRAVIRINE] | 6.8 |
| Cc1cc(/C=C/C#N)cc(C)c1Nc1ccnc(Nc2ccc(C#N)cc2)n1 [RILPIVIRINE] | 6.3 |

Biological target: Human immunodeficiency virus type 1 reverse transcriptase (Human immunodeficiency virus 1) (UniProt Q72547)
Assay: Inhibition of TAMRA-labeled primer/template duplex binding to HIV1 Alexa 488-labeled reverse transcriptase by FRET assay
Settings: not given

| Compound | Activity |
| --- | --- |
| O=C(Cn1cncn1)Nc1ccc(NC(=O)Nc2sc(-c3ccc(Cl)c(Cl)c3)cc2C(=O)O)cc1 | inactive |
| CN(C)S(=O)(=O)Nc1ccc(NC(=O)Nc2sc(-c3ccc(Cl)c(Cl)c3)cc2C(=O)O)cc1 | inactive |
| CC(=O)Nc1ccc(NC(=O)Nc2sc(-c3ccc(Cl)c(Cl)c3)cc2C(=O)O)cc1 | inactive |

System: not listed separately
Assay: Cytotoxicity against HEK293 cells
Type: cell-based
Settings: human, read-out: LD50 (the source's name)

| Compound | CC50 |
| --- | --- |
| CN(C)S(=O)(=O)Nc1ccc(NC(=O)Nc2sc(-c3ccc(Cl)c(Cl)c3)cc2C(=O)O)cc1 | > 100 µM |

Biological target: Human immunodeficiency virus type 1 reverse transcriptase (Human immunodeficiency virus 1, UniProt Q72547)
Assay: Inhibition of HIV1 reverse transcriptase using T19-Cy5 labeled 23-mer DNA/T2-TAMRA labeled 63-mer DNA as primer/template assessed as inhibition of dNTP incorporation into primer/template
Settings: not given

| Compound | IC50 |
| --- | --- |
| O=C(Cn1cncn1)Nc1ccc(NC(=O)Nc2sc(-c3ccc(Cl)c(Cl)c3)cc2C(=O)O)cc1 | 0.8 µM |
| CN(C)S(=O)(=O)Nc1ccc(NC(=O)Nc2sc(-c3ccc(Cl)c(Cl)c3)cc2C(=O)O)cc1 | 0.6 µM |
| Cc1cn([C@H]2C[C@H](N=[N+]=[N-])[C@@H](CO[P@](=O)(O)O[P@](=O)(O)OP(=O)(O)O)O2)c(=O)[nH]c1=O [ZIDOVUDINE TRIPHOSPHATE] | 7 µM |
| CC(=O)Nc1ccc(NC(=O)Nc2sc(-c3ccc(Cl)c(Cl)c3)cc2C(=O)O)cc1 | 0.6 µM |
